Counter-ions that a name gives are not always drawn.

This passage reports Ki results from patent US7951807B2 (Abbott GmbH & Co. KG, priority 2004, dated 2011).

The target of one assay is T1, human V1b receptors (Homo sapiens, UniProt P47901).
T1 construct: expressed in transfected cells
T1 sequence (P47901 1-424): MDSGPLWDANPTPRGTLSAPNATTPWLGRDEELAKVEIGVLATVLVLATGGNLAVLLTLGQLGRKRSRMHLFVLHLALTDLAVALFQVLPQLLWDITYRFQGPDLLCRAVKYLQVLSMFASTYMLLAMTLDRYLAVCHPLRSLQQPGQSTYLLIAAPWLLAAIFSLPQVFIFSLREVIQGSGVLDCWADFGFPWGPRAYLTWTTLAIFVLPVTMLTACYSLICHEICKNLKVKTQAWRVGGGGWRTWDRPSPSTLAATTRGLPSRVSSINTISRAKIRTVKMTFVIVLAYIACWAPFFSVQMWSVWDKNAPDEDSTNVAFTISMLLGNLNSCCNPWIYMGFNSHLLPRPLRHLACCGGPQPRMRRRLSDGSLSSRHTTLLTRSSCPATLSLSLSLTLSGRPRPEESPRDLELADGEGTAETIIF
The assay can be described thus: Vasopressin V1b Receptor Binding Test. Particulars: membranes of CHO-K1 cells with stably expressed human V1b receptors, 3H-AVP displacement. How it is done:
Vasopressin V1b Receptor Binding Test
(§1) The substances were dissolved in DMSO in a concentration of 10^−2 M and further diluted in DMSO to 10^−3 M to 10^−9 M. These DMSO solutions were diluted 1:10 with a test buffer. In the test batch, the substance concentration was again diluted 1:10.
The binding test was conducted according to the method of Tahara et al. (Tahara A. et al., Brit. J. Pharmacol. 125, 1463-1470 (1998)). In the test batch (0.250 ml), membranes (58 μg protein in an incubation buffer) of CHO-K1 cells were incubated with stably expressed human V1b receptors (preparation V1b-3H2, with protease inhibitors, Roche complete Mini # 1836170) with 1.5 nmol ^3H-AVP (8-Arg-Vasopressin, NET 800) in incubation buffer (50 mmol Tris, 10 mmol MgCl2, 0.1% BSA adjusted to pH 7.4 with HCl) (total binding) or additionally with increasing concentrations of the test substance (displacement experiment). The non-specific binding was determined with 10^−6 M AVP. Determinations were carried out three times.
Incubation buffer: 50 mmol tris, 10 mmol MgCl2, 0.1% BSA adjusted to pH 7.4 with HCl.
(§2) After incubation, 60 minutes at room temperature, the free radioligand was filtered off using vacuum filtration (Skatron cell harvester 7000) through Wathman GF/B fibreglass filters, and the filters were transferred to scintillation containers.
(§3) The liquid scintillation measurement was made in a Tricarb device, model 2000 or 2200CA (Packard). The conversion of the measured cpm into dpm was carried out with the help of a standard quench series.
(§4) The binding parameters were calculated using non-linear regression in SAS. The algorithms of the program work in a manner analogous to the LIGAND evaluation program (Munson P J und Rodbard D, Analytical Biochem. 107, 220-239 (1980)).
With `COc1ccc2c(c1)C(OC(=O)N1CCN(C3CCN(C)CC3)CC1)(c1ccccc1OC(C)C)C(=O)N2S(=O)(=O)c1ccc(C)cc1OC` (stereo not drawn) [Example 26, 4-(1-Methyl-piperidine-4-yl)-piperazine-1-carboxylic acid-[1-(2-methoxy-4-methyl-benzene)-sulfonyl-5-methoxy-2-oxo-3-(2-isopropoxyphenyl)-2,3-dihydro-1H-indole-3-yl] ester dihydrochloride], the Ki (commonly a measure of affinity in units of concentration, obtained from inhibition or displacement) was less than 100 nM.

`COc1ccc(S(=O)(=O)N2C(=O)C(OC(=O)N3CCN(C4CCN(C)CC4)CC3)(c3ccccc3OC)c3cc(C)ccc32)c(OC)c1` (stereo not drawn) [Example 17, 4-(1-Methyl-piperidine-4-yl)-piperazine-1-carboxylic acid-[1-(2,4-dimethoxy-benzenesulfonyl)-5-methyl-2-oxo-3-(2-methoxyphenyl)-2,3-dihydro-1H-indole-3-yl] ester dihydrochloride] gave an inhibition constant (Ki) of less than 100 nM. The same measure, in the same setting: the value for `COc1ccc(S(=O)(=O)N2C(=O)C(OC(=O)N3CCN(C4CCN(C)CC4)CC3)(c3ccccc3OC)c3cc(OC)ccc32)c(OC)c1` (stereo not drawn) [Example 6, 4-(1-Methyl-piperidine-4-yl)-piperazine-1-carboxylic acid-[1-(2,4-dimethoxy-benzenesulfonyl)-5-methoxy-2-oxo-3-(2-methoxyphenyl)-2,3-dihydro-1H-indole-3-yl] ester dihydrochloride] was less than 100 nM; that for `COc1ccc(S(=O)(=O)N2C(=O)C(OC(=O)N3CCN(C4CCN(C)CC4)CC3)(c3ccccc3OC(C)C)c3cc(OC)ccc32)c(OC)c1` (stereo not drawn) [Example 24, 4-(1-Methyl-piperidine-4-yl)-piperazine-1-carboxylic acid-[1-(2,4-dimethoxy-benzenesulfonyl)-5-methoxy-2-oxo-3-(2-isopropoxyphenyl)-2,3-dihydro-1H-indole-3-yl] ester dihydrochloride] was less than 100 nM. Still for that read-out and setting: the figure for `CCCOc1ccccc1C1(OC(=O)N2CCN(C3CCN(C)CC3)CC2)C(=O)N(S(=O)(=O)c2ccc(OC)cc2OC)c2ccc(OC)cc21` (stereo not drawn) [Example 2, 4-(1-Methyl-piperidine-4-yl)-piperazine-1-carboxylic acid-[1-(2,4-dimethoxy-benzenesulfonyl)-5-methoxy-2-oxo-3-(2-propoxyphenyl)-2,3-dihydro-1H-indole-3-yl] ester] is less than 100 nM; for `COc1ccc(S(=O)(=O)N2C(=O)C(OC(=O)N3CCN(C4CCN(C)CC4)CC3)(c3ccccc3OC)c3ccccc32)c(OC)c1` (stereo not drawn) [Example 23, 4-(1-Methyl-piperidine-4-yl)-piperazine-1-carboxylic acid-[1-(2,4-dimethoxy-benzenesulfonyl)-2-oxo-3-(2-methoxyphenyl)-2,3-dihydro-1H-indole-3-yl] ester dihydrochloride] it is less than 100 nM; for `CCOc1ccccc1C1(OC(=O)N2CCN(C3CCN(C)CC3)CC2)C(=O)N(S(=O)(=O)c2ccc(OC)cc2OC)c2ccc(OC)cc21` (stereo not drawn) [Example 30, 4-(1-Methyl-piperidine-4-yl)-piperazine-1-carboxylic acid-[1-(2,4-dimethoxy-benzenesulfonyl)-5-methoxy-2-oxo-3-(2-ethoxyphenyl)-2,3-dihydro-1H-indole-3-yl] ester dihydrochloride] it is less than 100 nM. On the same count and under the same terms, the value for `COc1ccc(S(=O)(=O)N2C(=O)C(OC(=O)N3CCN(C4CCN(C)CC4)CC3)(c3ccccc3OC)c3cc(F)ccc32)c(OC)c1` (stereo not drawn) [Example 10, 4-(1-Methyl-piperidine-4-yl)-piperazine-1-carboxylic acid-[1-(2,4-dimethoxy-benzenesulfonyl)-5-fluoro-2-oxo-3-(2-methoxyphenyl)-2,3-dihydro-1H-indole-3-yl] ester] was less than 100 nM; that for `COc1ccc(S(=O)(=O)N2C(=O)C(NC(=O)N3CCN(C4CCN(C)CC4)CC3)(c3ccccc3OC)c3cc(OC)ccc32)c(OC)c1` (stereo not drawn) [Example 16, 4-(1-Methyl-piperidine-4-yl)-piperazine-1-carboxylic acid-[1-(2,4-dimethoxy-benzenesulfonyl)-5-methoxy-2-oxo-3-(2-methoxyphenyl)-2,3-dihydro-1H-indole-3-yl] amide dihydrochloride] was less than 100 nM.

A further assay deals with T2, human V1a receptors (Homo sapiens).
T2 construct: expressed in transfected cells
Description: Vasopressin V1a Receptor Binding Test. Particulars: membranes of CHO cells with stably expressed human V1a receptors, 125 iodine AVP displacement. The procedure:
Vasopressin V1a Receptor Binding Test
as §1
The binding test was conducted according to the method of Tahara et al. (Tahara A. et al., Brit. J. Pharmacol. 125, 1463-1470 (1998)). In the test batch (0.250 ml), membranes (50 μg protein in an incubation buffer (50 mmol tris, 10 mmol MgCl2, 0.1% BSA adjusted to pH 7.4 with HCl)) of CHO cells were incubated with stably expressed human V1a receptors (preparation V1a clone 5.0, with protease inhibitors, Roche complete Mini # 1836170) with 0.04 nmol 125 iodine AVP (NEX128) in the incubation buffer (total binding) or additionally with increasing concentrations of the test substance (displacement experiment). The non-specific binding was determined with 10^−6 M AVP. Determinations were carried out three times.
as §2, §3, §4
`CN1CCC(N2CCN(C(=O)OC3(c4ccccc4)C(=O)N(S(=O)(=O)c4ccccc4)c4ccc(Cl)cc43)CC2)CC1` (stereo not drawn) [Example 4, 4-(1-Methyl-piperidine-4-yl)-piperazine-1-carboxylic acid-[1-benzenesulfonyl-5-chloro-2-oxo-3-phenyl-2,3-dihydro-1H-indole-3-yl] ester dihydrochloride] showed a Ki of less than 100 nM.

As for `CN1CCN(C2CCN(C(=O)OC3(c4ccccc4)C(=O)N(S(=O)(=O)c4ccccc4)c4ccc(Cl)cc43)CC2)CC1` (stereo not drawn) [Example 5, 4-(4-Methyl-piperazine-1-yl)-piperidine-1-carboxylic acid-[1-benzenesulfonyl-5-chloro-2-oxo-3-phenyl-2,3-dihydro-1H-indole-3-yl] ester], the inhibitory constant (Ki) was less than 100 nM. With `COc1ccc(S(=O)(=O)N2C(=O)C(NC(=O)N3CCN(C4CCN(C)CC4)CC3)(c3ccccc3OC)c3cc(Cl)ccc32)c(OC)c1` (stereo not drawn) [Example 3, 4-(1-Methyl-piperidine-4-yl)-piperazine-1-carboxylic acid-[1-(2,4-dimethoxy-benzenesulfonyl)-5-chloro-2-oxo-3-(2-methoxyphenyl)-2,3-dihydro-1H-indole-3-yl] amide dihydrochloride], the Ki was less than 100 nM. On to `COc1ccccc1C1(OC(=O)N2CCN(C3CCN(C)CC3)CC2)C(=O)N(S(=O)(=O)c2ccccc2)c2ccc(Cl)cc21` (stereo not drawn) [Example 1], for which the Ki was less than 100 nM. Still for that read-out and setting: the value for `COc1ccc(S(=O)(=O)N2C(=O)C(OC(=O)N3CCN(C4CCN(Cc5ccccc5)CC4)CC3)(c3ccccc3OC)c3cc(OC)ccc32)c(OC)c1` (stereo not drawn) [Example 13, 4-(1-Benzyl-piperidine-4-yl)-piperazine-1-carboxylic acid-[1-(2,4-dimethoxy-benzenesulfonyl)-5-methoxy-2-oxo-3-(2-methoxyphenyl)-2,3-dihydro-1H-indole-3-yl] ester] was less than 100 nM. `COc1ccc(S(=O)(=O)N2C(=O)C(OC(=O)N3CCN(C4CCN(C)CC4)CC3)(c3ccccc3C)c3cc(OC)ccc32)c(OC)c1` (stereo not drawn) [Example 8, 4-(1-Methyl-piperidine-4-yl)-piperazine-1-carboxylic acid-[1-(2,4-dimethoxy-benzenesulfonyl)-5-methoxy-2-oxo-3-(2-methylphenyl)-2,3-dihydro-1H-indole-3-yl] ester dihydrochloride] registered a Ki of less than 100 nM.
